Reference: PubChem BioAssay AID1918946 (Molecular Pharmacology Branch, DTP, NCI, 2023)

Test system: 885512-296-R-J2-PDC complex spheroid viability
Assay: Anticancer human tumor 885512-296-R-J2-PDC patient-derived breast carcinoma cell line growth inhibition
Conditions: for IC50: curve of first compound; for viability, T/C: stronger effect = lower value; active = viability on the fitted dose curve at most 10% of control; inactive = the rest
Source text: Multicellular complex tumor spheroid response to LSD1 Inhibitor Iadademstat in combination with a variety of drugs and investigational agents in selected tumor cell lines
The current study was undertaken to assess response to LSD1 inhibitors in combination with standard-of-care drugs and investigational agents in solid tumor complex spheroid models as well as in the K-562 leukemia. Complex spheroids include a stromal component modeled by human endothelial cells (HUVEC) and fibroblasts modeled by human mesenchymal stem cells (MSCs). The concentration ranges selected for each drug and investigational agent were based upon clinically achievable concentrations if the clinical Cmax of the agent was known.
Compounds. The drugs and investigational agents used in this study are listed on Table 1. All of the agents used, including staurosporine (NSC755774) and gemcitabine (NSC613327), were obtained from the Developmental Therapeutics Program, NCI. FDA-approved anticancer drugs are available from the NCI at http://dtp.nci.nih.gov/branches/dscb/oncology_drugset_explanation.html. Drugs and investigational agents were >95% pure by proton nuclear magnetic resonance (NMR) and liquid chromatography/mass spectrometry (LC/MS). Stock solutions were prepared at 400x in DMSO, stored at -70 degrees C, and diluted in fresh medium prior to their use. The final concentration of DMSO in cell culture wells never exceeded 0.25% (v/v). The FDA-approved anticancer drug set is available from the Developmental Therapeutics Program at https://dtp.cancer.gov/organization/dscb/obtaining/available_plates.htm. All drugs and investigational agents were tested over a range starting from a high concentration at or near the clinical Cmax and decreasing in half-log increments. If the clinical Cmax for an agent had not been determined, the highest concentration tested was 10 microM.
Cell Lines. The patient-derived cancer cell (PDC) lines: 292921-168-R-J2-PDC, K24384-001-R-PDC, and 521955-158-R2-J5-PDC pancreatic carcinomas, 556581-035-R-J1 ovarian carcinoma, 324938-238-R-J1-PDC, 855422-203-R-J1-PDC and 883617-216-R-J1-PDC urothelial bladder carcinomas, 743489-274-T-PDC renal cell carcinoma, 138582-R-J1 Merkel cell tumor, K60290-347-R-J1 and K57222-313-R-J1-PDC glioblastomas, 653999-131-R-J2-PDC, LG0703-F948-PDC, and 349418-098-R-PDC non-small cell lung carcinomas, 885512-296-R-J2-PDC, 171881-019-R-J1-PDC breast carcinomas and 186277-243-T-J2-PDC and 233499-124-R-J2-PDC colon carcinomas were obtained from the NCI Patient-Derived Models Repository (PDMR, https://pdmr.cancer.gov). The established cell lines NCI/ADR-RES (RRID:CVCL_14520 and OVCAR-5 (RRID:CVCL_1628) ovarian carcinomas, 786-O (RRID:CVCL_1051) and A498 (RRID:CVCL_A498) renal cell carcinoma, NCI-H211 (ATCC, cat. CRL-5824; RRID:CVCL_1529), NCI-H196 (ATCC, cat. CRL-5823, RRID:CVCL_1509), SW 1271 (ATCC, cat. CRL-2177, RRID:CVCL_1716) and NCI-H1876 (ATCC, cat. CRL-5902, RRID:CVCL_1503) small cell lung carcinomas, MDA-MB-231 (RRID:CVCL_0062) and MDA-MB-468 (RRID:CVCL_0419)breast carcinomas (10-12). Pooled donor human umbilical vein endothelial cells (HUVEC, Lonza, cat. CC-2519) and human mesenchymal stem cells (hMSC, Lonza, cat. PT-2501) were purchased from Lonza (Walkersville, MD).
Cell Culture. All cells were maintained in an incubator at 37 degrees C and 5% CO2 with 95% humidity. The PDC lines were cultured according to standard operating procedures established by the NCI PDMR (https://pdmr.cancer.gov). Briefly all PDCs were thawed and cultured in Matrigel-coated flasks prepared with a working solution of 1X Ham's F-12 nutrient mix, without supplementation (Invitrogen, Waltham, MA, cat. 11765054), 100 U/mL penicillin-streptomycin (Invitrogen, cat. 15140122), and 2.5% Matrigel (Corning Inc., Corning, NY, cat. 354248) for the first three passages. […]

[1] = second compound 0.1 µM, first compound 0.000949 µM
[2] = second compound 0.1 µM, first compound 0.003 µM
[3] = second compound 0.1 µM, first compound 0.00949 µM
[4] = second compound 0.1 µM, first compound 0.03 µM
[5] = second compound 0.1 µM, first compound 0.0949 µM
[6] = second compound 0.1 µM, first compound 0.3 µM
[7] = second compound 0.316 µM, first compound 0.000949 µM
[8] = second compound 0.316 µM, first compound 0.003 µM
[9] = second compound 0.316 µM, first compound 0.00949 µM
[10] = second compound 0.316 µM, first compound 0.03 µM
[11] = second compound 0.316 µM, first compound 0.0949 µM
[12] = second compound 0.316 µM, first compound 0.3 µM
[13] = second compound 1 µM, first compound 0.000949 µM
[14] = second compound 1 µM, first compound 0.003 µM
[15] = second compound 1 µM, first compound 0.00949 µM
[16] = second compound 1 µM, first compound 0.03 µM
[17] = second compound 1 µM, first compound 0.0949 µM
[18] = second compound 1 µM, first compound 0.3 µM
[19] = second compound 3.16 µM, first compound 0.000949 µM
[20] = second compound 3.16 µM, first compound 0.003 µM
[21] = second compound 3.16 µM, first compound 0.00949 µM
[22] = second compound 3.16 µM, first compound 0.03 µM
[23] = second compound 3.16 µM, first compound 0.0949 µM
[24] = second compound 3.16 µM, first compound 0.3 µM
[25] = second compound 10 µM, first compound 0.000949 µM
[26] = second compound 10 µM, first compound 0.003 µM
[27] = second compound 10 µM, first compound 0.00949 µM
[28] = second compound 10 µM, first compound 0.03 µM
[29] = second compound 10 µM, first compound 0.0949 µM
[30] = second compound 10 µM, first compound 0.3 µM
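Note: spheroids exposed to agents for 7 days before viability read.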

CCc1c2c(nc3ccc(O)cc13)-c1cc3c(c(=O)n1C2)COC(=O)[C@]3(O)CC + NC1CC1c1ccc(-c2cccc(O)c2)cc1
active: viability, T/C [1] 1.84% | viability, T/C [2] 1.73% | viability, T/C [3] 1.08% | viability, T/C [4] 1.22% | viability, T/C [5] 1.37% | viability, T/C [6] 1.16% | viability, T/C [7] 2.42% | viability, T/C [8] 1.57% | viability, T/C [9] 1.3% | viability, T/C [10] 1.37% | viability, T/C [11] 1.16% | viability, T/C [12] 1.05% | viability, T/C [13] 1.79% | viability, T/C [14] 1.95% | viability, T/C [15] 1.46% | viability, T/C [16] 1.26% | viability, T/C [17] 1.14% | viability, T/C [18] 1.13% | viability, T/C [19] 2.13% | viability, T/C [20] 1.76% | viability, T/C [21] 1.07% | viability, T/C [22] 1.01% | viability, T/C [23] 0.8% | viability, T/C [24] 0.78% | viability, T/C [25] 2.37% | viability, T/C [26] 2.17% | viability, T/C [27] 1.55% | viability, T/C [28] 0.87% | viability, T/C [29] 0.91% | viability, T/C [30] 0.8%
< 0.949 nM: IC50 (second compound 0.1 µM) | IC50 (second compound 0.316 µM) | IC50 (second compound 1 µM) | IC50 (second compound 3.16 µM) | IC50 (second compound 10 µM)

Nc1ccn(C2OC(CO)C(O)C2(F)F)c(=O)n1 (stereo not given) + NC1CC1c1ccc(-c2cccc(O)c2)cc1
active: viability, T/C [2] 2.18% | viability, T/C [3] 2% | viability, T/C [4] 2.39% | viability, T/C [5] 2.84% | viability, T/C [6] 2.16% | viability, T/C [8] 2.09% | viability, T/C [9] 1.82% | viability, T/C [10] 2.16% | viability, T/C [11] 2.14% | viability, T/C [12] 2.23% | viability, T/C [14] 2.01% | viability, T/C [15] 2.01% | viability, T/C [16] 2.18% | viability, T/C [17] 2.05% | viability, T/C [18] 2.5% | viability, T/C [20] 2.08% | viability, T/C [21] 2.46% | viability, T/C [22] 1.83% | viability, T/C [23] 2.59% | viability, T/C [24] 2.46% | viability, T/C [26] 2.15% | viability, T/C [27] 2.26% | viability, T/C [28] 2.65% | viability, T/C [29] 2.46% | viability, T/C [30] 3.06%
inactive: viability, T/C [1] 13.8% | viability, T/C [7] 17.7% | viability, T/C [13] 12.1% | viability, T/C [19] 15.3% | viability, T/C [25] 15.8%
< 0.949 nM: IC50 (second compound 0.1 µM) | IC50 (second compound 0.316 µM) | IC50 (second compound 1 µM) | IC50 (second compound 3.16 µM) | IC50 (second compound 10 µM)
